{"source": "patent US8003698B2", "about": "“Site-specific inhibitors of histone methyltransferase (HMTASE) and process of preparation thereof” (Jawaharlal Nehru Centre for Advanced Scientific Research, priority 2006, dated 2011)", "key": {"[1]": {"target": "T1, arginine methyltransferase CARM1 (Homo sapiens, UniProt Q86X55)", "T1 sequence (Q86X55 1-608)": "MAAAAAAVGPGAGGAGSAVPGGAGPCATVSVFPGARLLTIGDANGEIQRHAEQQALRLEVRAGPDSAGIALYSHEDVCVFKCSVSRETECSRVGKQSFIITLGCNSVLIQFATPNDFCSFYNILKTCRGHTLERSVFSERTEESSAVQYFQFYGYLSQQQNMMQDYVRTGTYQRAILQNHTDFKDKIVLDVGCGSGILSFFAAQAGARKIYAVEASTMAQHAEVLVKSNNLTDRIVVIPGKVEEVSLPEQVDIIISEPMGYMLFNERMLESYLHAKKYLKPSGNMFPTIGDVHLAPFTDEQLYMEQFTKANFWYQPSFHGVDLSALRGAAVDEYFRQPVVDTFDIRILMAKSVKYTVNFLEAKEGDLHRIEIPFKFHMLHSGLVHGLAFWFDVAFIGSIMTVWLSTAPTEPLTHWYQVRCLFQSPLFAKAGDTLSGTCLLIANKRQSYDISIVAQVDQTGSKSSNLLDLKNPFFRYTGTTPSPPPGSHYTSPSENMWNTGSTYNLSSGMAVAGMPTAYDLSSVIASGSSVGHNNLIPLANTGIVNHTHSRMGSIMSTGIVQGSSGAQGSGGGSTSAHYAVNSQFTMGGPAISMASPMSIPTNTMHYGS", "assay": "Filterbinding and gel (fluorography) HMTase assay against CARM1", "assay_type": "biochemical", "from_the_text": "(§1) FIG. 1a: Effect of LTK20 on Histone Modifying Enzymes (Filterbinding Assay) Filterbinding Assay of LTK20 carried out with the Histone acetyltransferases p300, PCAF and Histone methyltransferases CARM1, G9a. Lane 1—histones alone, lane 2—Enzyme control, lane 3—DMSO control, lane 4-5, LTK20 in increasing concentration.\n(§2) FIG. 1b: Effect of LTK20 on Histone Modifying Enzymes (Fluorography) Gel Assay of LTK20 carried out with Histone acetyltransferases p300, PCAF and Histone methyltransferases CARM1, G9a. Lane 1—histones alone, lane 2—Enzyme control, lane 3—DMSO control, lane 4 & 5—LTK20 in increasing concentration.\n(§3) (2,3,7,8-TETRAHYDROXY[1]BENZOPYRANO[5,4,3(DE)[1]BENZOPYRAN5,10-DIONE) was identified as a specific inhibitor of the arginine methyltransferase CARM1 with an IC50 of 20 μM, both by filterbinding (FIG. 1a) and fluorography assays (FIG. 1b)."}, "[2]": {"target": "T2, lysine methyltransferase G9a (Homo sapiens, UniProt Q96KQ7)", "T2 sequence (Q96KQ7 1-1210)": "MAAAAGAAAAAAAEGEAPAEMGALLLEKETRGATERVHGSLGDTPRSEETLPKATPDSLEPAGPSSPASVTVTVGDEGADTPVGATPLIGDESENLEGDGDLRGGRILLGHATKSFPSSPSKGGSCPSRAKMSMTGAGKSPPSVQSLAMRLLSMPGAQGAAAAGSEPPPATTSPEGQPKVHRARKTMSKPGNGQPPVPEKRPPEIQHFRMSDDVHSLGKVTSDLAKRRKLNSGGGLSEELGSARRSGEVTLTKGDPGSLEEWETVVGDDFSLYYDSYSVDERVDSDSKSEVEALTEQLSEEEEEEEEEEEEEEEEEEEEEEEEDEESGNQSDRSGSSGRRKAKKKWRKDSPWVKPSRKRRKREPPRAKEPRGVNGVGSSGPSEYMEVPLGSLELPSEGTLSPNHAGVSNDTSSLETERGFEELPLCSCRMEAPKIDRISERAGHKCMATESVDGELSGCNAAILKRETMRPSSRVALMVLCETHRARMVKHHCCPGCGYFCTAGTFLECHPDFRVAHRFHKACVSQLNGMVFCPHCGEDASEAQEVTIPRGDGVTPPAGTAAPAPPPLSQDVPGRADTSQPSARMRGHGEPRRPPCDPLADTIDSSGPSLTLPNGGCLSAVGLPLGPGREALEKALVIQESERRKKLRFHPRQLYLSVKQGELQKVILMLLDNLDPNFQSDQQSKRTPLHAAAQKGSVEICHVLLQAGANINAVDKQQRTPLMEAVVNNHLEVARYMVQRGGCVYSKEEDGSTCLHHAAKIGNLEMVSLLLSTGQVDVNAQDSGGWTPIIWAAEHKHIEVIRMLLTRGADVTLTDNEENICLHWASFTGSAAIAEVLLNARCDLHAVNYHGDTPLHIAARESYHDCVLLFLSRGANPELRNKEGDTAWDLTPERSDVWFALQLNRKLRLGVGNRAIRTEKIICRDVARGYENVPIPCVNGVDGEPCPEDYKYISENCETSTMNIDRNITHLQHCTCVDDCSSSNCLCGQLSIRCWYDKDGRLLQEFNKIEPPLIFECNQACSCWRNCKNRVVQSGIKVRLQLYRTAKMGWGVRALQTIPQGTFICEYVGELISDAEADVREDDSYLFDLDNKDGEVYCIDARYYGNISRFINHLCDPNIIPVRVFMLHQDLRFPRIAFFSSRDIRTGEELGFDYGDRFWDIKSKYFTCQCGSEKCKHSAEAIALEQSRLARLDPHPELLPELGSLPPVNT", "assay": "Filterbinding and gel (fluorography) HMTase assay against G9a", "assay_type": "biochemical", "from_the_text": "as §1, §2, §3"}, "[3]": {"target": "histone acetyltransferase p300 (Homo sapiens, UniProt Q09472)", "sequence (Q09472 whole entry)": "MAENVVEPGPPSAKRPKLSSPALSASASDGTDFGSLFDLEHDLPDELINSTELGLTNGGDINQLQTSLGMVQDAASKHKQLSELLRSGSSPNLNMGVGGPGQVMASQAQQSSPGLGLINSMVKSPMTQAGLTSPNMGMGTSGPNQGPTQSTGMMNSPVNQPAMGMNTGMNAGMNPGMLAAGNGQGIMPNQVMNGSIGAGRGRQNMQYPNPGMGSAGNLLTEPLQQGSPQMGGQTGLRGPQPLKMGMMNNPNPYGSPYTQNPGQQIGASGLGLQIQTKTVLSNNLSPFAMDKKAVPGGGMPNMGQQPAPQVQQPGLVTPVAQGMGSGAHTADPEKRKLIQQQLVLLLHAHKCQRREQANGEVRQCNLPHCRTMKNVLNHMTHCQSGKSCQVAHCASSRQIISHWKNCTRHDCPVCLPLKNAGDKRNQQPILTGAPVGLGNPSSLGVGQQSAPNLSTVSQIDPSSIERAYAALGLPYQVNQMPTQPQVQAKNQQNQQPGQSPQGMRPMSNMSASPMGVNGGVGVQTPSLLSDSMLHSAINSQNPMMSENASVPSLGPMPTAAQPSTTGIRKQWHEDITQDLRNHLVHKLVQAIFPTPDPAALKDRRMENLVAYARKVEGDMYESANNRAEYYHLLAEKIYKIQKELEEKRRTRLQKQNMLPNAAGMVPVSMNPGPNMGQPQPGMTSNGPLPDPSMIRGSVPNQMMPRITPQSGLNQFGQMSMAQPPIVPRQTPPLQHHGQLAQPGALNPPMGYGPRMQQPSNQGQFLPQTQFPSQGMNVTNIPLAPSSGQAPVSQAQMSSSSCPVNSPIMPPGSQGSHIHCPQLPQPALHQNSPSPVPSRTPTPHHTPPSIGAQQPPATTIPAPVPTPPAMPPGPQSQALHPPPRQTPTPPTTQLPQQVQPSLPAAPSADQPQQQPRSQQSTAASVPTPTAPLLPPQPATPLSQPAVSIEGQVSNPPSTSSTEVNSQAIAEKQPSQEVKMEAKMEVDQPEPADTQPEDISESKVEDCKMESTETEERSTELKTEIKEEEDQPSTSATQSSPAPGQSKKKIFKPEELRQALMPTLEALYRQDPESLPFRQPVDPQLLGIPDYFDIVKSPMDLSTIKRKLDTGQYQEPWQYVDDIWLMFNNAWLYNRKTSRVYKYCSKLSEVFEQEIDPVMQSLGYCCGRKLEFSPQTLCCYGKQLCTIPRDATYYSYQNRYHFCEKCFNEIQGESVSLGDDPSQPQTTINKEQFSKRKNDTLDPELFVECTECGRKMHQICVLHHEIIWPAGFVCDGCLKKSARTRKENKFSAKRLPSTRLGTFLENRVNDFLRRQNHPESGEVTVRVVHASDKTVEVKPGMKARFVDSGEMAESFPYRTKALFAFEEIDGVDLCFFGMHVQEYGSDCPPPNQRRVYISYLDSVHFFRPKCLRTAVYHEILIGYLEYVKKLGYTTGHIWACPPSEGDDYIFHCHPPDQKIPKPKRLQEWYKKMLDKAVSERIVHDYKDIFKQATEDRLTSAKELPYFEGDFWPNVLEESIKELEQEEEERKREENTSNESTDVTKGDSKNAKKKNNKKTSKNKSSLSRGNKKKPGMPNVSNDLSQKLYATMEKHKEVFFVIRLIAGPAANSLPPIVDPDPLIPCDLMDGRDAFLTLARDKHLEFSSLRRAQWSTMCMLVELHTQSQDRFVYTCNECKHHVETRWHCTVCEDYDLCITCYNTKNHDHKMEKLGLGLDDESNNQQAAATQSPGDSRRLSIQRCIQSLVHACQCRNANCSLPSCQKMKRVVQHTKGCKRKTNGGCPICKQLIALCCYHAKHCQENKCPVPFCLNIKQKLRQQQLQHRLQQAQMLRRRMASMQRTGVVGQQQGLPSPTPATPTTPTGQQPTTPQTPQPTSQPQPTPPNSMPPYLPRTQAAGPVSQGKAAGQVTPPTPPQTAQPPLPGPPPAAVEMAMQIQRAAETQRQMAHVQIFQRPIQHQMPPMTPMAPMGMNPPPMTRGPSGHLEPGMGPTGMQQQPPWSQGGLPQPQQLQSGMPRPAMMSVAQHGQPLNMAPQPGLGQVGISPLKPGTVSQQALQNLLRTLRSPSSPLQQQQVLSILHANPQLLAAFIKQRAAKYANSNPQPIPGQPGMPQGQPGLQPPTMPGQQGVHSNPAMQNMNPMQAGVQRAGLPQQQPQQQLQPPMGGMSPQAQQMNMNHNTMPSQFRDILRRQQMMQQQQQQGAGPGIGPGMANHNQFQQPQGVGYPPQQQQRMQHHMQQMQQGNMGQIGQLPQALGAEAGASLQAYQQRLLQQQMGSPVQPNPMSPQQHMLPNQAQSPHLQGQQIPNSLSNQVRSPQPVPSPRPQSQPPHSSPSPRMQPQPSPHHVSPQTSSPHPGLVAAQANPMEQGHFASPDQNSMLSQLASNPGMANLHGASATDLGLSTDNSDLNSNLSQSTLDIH", "assay": "Filterbinding and gel (fluorography) HAT assay against p300", "assay_type": "biochemical", "from_the_text": "as §1, §2, §3"}, "[4]": {"target": "histone acetyltransferase PCAF (Homo sapiens, UniProt Q92831)", "sequence (Q92831 whole entry)": "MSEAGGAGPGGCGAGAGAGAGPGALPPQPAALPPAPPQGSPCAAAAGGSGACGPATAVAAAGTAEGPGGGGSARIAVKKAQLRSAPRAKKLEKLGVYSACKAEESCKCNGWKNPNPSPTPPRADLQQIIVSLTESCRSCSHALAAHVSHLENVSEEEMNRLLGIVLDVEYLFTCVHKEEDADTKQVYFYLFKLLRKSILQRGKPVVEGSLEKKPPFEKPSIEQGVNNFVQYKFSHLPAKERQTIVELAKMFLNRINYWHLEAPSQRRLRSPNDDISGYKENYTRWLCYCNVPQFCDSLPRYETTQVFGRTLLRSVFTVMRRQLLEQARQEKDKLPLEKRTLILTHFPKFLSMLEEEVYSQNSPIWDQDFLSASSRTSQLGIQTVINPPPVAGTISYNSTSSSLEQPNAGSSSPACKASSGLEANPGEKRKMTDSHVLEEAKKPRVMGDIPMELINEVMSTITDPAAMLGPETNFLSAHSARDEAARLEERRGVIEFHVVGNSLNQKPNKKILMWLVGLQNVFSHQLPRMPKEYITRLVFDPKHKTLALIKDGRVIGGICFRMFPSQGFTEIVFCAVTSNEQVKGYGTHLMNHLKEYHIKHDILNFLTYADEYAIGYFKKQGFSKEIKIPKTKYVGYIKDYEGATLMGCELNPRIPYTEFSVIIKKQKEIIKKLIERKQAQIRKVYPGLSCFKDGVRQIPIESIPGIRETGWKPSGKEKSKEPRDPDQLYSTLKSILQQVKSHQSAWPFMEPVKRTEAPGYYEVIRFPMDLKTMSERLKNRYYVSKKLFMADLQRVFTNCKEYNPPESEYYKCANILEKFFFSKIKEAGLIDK", "assay": "Filterbinding and gel (fluorography) HAT assay against PCAF", "assay_type": "biochemical", "from_the_text": "as §1, §2, §3"}, "CARM1 [5]": {"target": "T3, CARM1 (Homo sapiens, UniProt Q86X55)", "T3 sequence (Q86X55 1-608)": "T1 sequence (Q86X55 1-608)", "assay": "Kinetic analysis of the pattern of inhibition of CARM1 methylation of histone H3", "assay_type": "biochemical", "conditions": "recombinant histone H3 and tritiated SAM varied; two inhibitor concentrations", "procedure": "Since the inhibitor is specific to CARM1 mediated methylation of histones which is directed to the histone H3, histone H3 was used as the substrate for the kinetic analysis. Initially, the inhibition was confirmed using the recombinant histone as the substrate. CARM1 methylation reaction was carried out using increasing concentration of histone H3 and the methyl group donor, tritiated SAM keeping the enzyme concentration constant. Two different inhibitor concentrations were assayed."}, "histone H3": {"target": "histone H3 (Homo sapiens, UniProt P68431)", "assay": "Isothermal Calorimetric Titration with substrate histone H3", "assay_type": "binding", "conditions": "substrate in cell titrated against inhibitor", "from_the_text": "FIG. 2: Binding Isotherm of Histone H3 with LTK20 Isothermal Calorimetric Titration carried out with the protein histone H3 and the ligand LTK20, which is the inhibitor.\n(§4) The pattern of inhibition is uncompetitive indicating the mode of inhibition is via the Enzyme-Substrate complex, the binding of the inhibitor has been characterized by Isothermal Calorimetric Titration wherein either the substrate (histone H3) or enzyme (CARM1) was taken in the cell and titrated against the inhibitor (2,3,7,8TETRAHYDROXY[1]BENZOPYRANO[5,4,3(DE)[1]BENZOPYRAN5,10-DIONE)."}, "CARM1 [6]": {"target": "T3, CARM1", "assay": "Isothermal Calorimetric Titration with enzyme CARM1", "assay_type": "binding", "conditions": "enzyme in cell titrated against inhibitor", "from_the_text": "as §4"}, "[7]": {"target": "CARM1 methylation sites on histone H3, R17 and R26 (Homo sapiens, UniProt P68431)", "assay": "In vitro CARM1 methylation reaction, western analysis with site-specific antibodies", "assay_type": "biochemical", "procedure": "(§5) FIGS. 3a and 3b: Preferential Inhibition of CARM1 Mediated Methylation Site-specific inhibition of arginine methylation of histone H3 observed in the presence of LTK20 both in vitro and in vivo. H3R17 and H3R26 are both CARM1 methylation sites on histone H3.\nIn vitro CARM1 methylation reaction was carried out in the presence or absence of inhibitors, and probed with antibodies against the specific CARM1 methylation sites on histone H3, R17 and R26."}, "[8]": {"tested_on": "CARM1 methylation sites on histone H3, R17 and R26 in HeLa cells", "assay": "HeLa cells, western analysis of acid extracted histones", "assay_type": "cell-based", "conditions": "for Methylation of H3R17: 50 μM, 24 hours", "procedure": "as §5\nIn vivo characterization was done by treating HeLa cells with the molecule at 50 μM concentration for a period of 24 hours, and the acid extracted histones were probed with antibodies against CARM1 methylation sites on histone H3, R17 and R26."}, "[9]": {"tested_on": "CARM1 methylation sites on histone H3, R17 and R26 in HeLa cells", "assay": "HeLa cells, immunofluorescence analysis", "assay_type": "cell-based", "conditions": "50 μM, 24 hours", "procedure": "FIGS. 3c and 3d: Immunofluorescence Analysis of LTK20 Treated HeLa Cells\nIn vivo characterization was done by treating HeLa cells with the molecule at 50 μM concentration for a period of 24 hours, and the cells were probed with antibodies against CARM1 methylation sites on histone H3, R17 and R26 and were visualized by anti rabbit alexa fluor 488 antibody."}, "U2OS cells": {"tested_on": "U2OS cells", "assay": "Modulation of p53 and p21 protein levels in U2OS cells by western analysis", "assay_type": "cell-based", "conditions": "for p21 levels: UV irradiated U2OS cells, vs DMSO control", "from_the_text": "FIG. 4: Immunoblot Analysis with p21 Antibody UV irradiated U2OS cells treated with or without inhibitors. The lysate was probed with antibody against p21. p21 levels show an increase in the presence of LTK20 as compared to the DMSO control.\nPhysiological effect of the inhibitor was characterized by selecting the p53 system, since CARM1 mediated histone methylation is known to cooperatively enhance the transcriptional activation of p53 responsive genes. […] U2OS, which is a p53 positive cell line was used for the assay, and on treatment with molecule at 50 μM concentration for a period of 24 hours, p53 levels were altered. Since, the p53 responsive genes had to be assayed, p21 was selected (there is no apoptosis, therefore the apoptosis genes were not selected). UV irradiated cells were treated with (2,3,7,8-TETRAHYDROXY[1]BENZOPYRANO[5,4,3(DE)[1]BENZOPYRAN5,10-DIONE) for a period of 24 hours and the lysate was probed with antibody against p21. […] This clearly indicates a possible implication of this molecule in the tumor suppressor p53 mediated transcriptional activation."}, "[10]": {"conditions": "filterbinding, HeLa core histones"}, "[11]": {"conditions": "listed as (2,3,7,8-TETRAHYDROXY[1]BENZOPYRANO[5,4,3(DE)[1]BENZOPYRAN5,10-DIONE)"}}, "note": "Read-outs that look alike come from different tables or passages of the source."}
{"compound": "O=c1oc2c(O)c(O)cc3c(=O)oc4c(O)c(O)cc1c4c23", "note": "[LTK20, (2,3,7,8-TETRAHYDROXY[1]BENZOPYRANO [5,4,3(DE)[1]BENZOPYRAN 5,10-DIONE)]", "values": [{"measurement": "IC50", "setting": "[1]; HeLa core histones as substrate, both filterbinding and fluorography assays", "result": 20, "unit": "µM"}, {"measurement": "Effect on CARM1 activity (filterbinding assay)", "setting": "[1]; [10]", "result": "inhibits CARM1 activity"}, {"measurement": "Effect on CARM1 activity (gel assay, fluorography)", "setting": "[1]; fluorography", "result": "inhibits CARM1 activity"}, {"measurement": "Effect on G9a activity (filterbinding assay)", "setting": "[2]; [10]", "result": "does not act on other enzymes"}, {"measurement": "Effect on G9a activity (gel assay, fluorography)", "setting": "[2]; fluorography", "result": "does not act on other enzymes"}, {"measurement": "Effect on p300 activity (filterbinding assay)", "setting": "[3]; filterbinding", "result": "does not act on other enzymes"}, {"measurement": "Effect on p300 activity (gel assay, fluorography)", "setting": "[3]; fluorography", "result": "does not act on other enzymes"}, {"measurement": "Effect on PCAF activity (filterbinding assay)", "setting": "[4]; filterbinding", "result": "does not act on other enzymes"}, {"measurement": "Effect on PCAF activity (gel assay, fluorography)", "setting": "[4]; fluorography", "result": "does not act on other enzymes"}, {"measurement": "Pattern of CARM1 methylation inhibition", "setting": "CARM1 [5]", "result": "uncompetitive"}, {"measurement": "Binding to histone H3 (ITC)", "setting": "histone H3", "result": "fits to the two sequential binding site model"}, {"measurement": "Binding to histone H3 (ITC)", "setting": "histone H3; listed as (2,3,7,8TETRAHYDROXY[1]BENZOPYRANO[5,4,3(DE)[1]BENZOPYRAN5,10-DIONE)", "result": "binds to the substrate at two sequential binding sites"}, {"measurement": "Binding to CARM1 (ITC)", "setting": "CARM1 [6]", "result": "no binding of the molecule to the enzyme"}, {"measurement": "Methylation of H3R17", "setting": "[7]", "result": "inhibited"}, {"measurement": "Methylation of H3R26", "setting": "[7]", "result": "getting methylated"}, {"measurement": "Methylation of H3R17", "setting": "[7]; [11]", "result": "Site-specific inhibition of H3R17"}, {"measurement": "Methylation of H3R26", "setting": "[8]", "result": "getting methylated"}, {"measurement": "Methylation of H3R17", "setting": "[8]", "result": "inhibited"}, {"measurement": "Methylation of H3R17", "setting": "[8]; [11]", "result": "Site-specific inhibition of H3R17"}, {"measurement": "Methylation of H3R17", "setting": "[9]", "result": "Site-specific inhibition of H3R17"}, {"measurement": "Apoptosis", "setting": "U2OS cells; U2OS cells", "result": "no apoptosis"}, {"measurement": "p53 levels", "setting": "U2OS cells; U2OS, 50 μM, 24 hours", "result": "altered"}, {"measurement": "p21 levels", "setting": "U2OS cells; 24 hours", "result": "increase"}, {"measurement": "p21 levels", "setting": "U2OS cells; 24 hours, listed as (2,3,7,8-TETRAHYDROXY[1]BENZOPYRANO[5,4,3(DE)[1]BENZOPYRAN5,10-DIONE)", "result": "increase in p21 levels"}]}
